Test system: DSS-induced colitis
Assay: Mouse model of Dextran Sodium Sulfate-induced colitis
Format: in vivo, female C57/B16 mice
Description: A mouse model of colitis induced by administration of Dextran Sodium Sulfate (DSS) (Wirtz S. et al. Nature Protocols; Volume: 2, Issue: 3 Pages: 541-546; 2007) was used to study the therapeutic effect of oral administration of DFL23806 on colitis.
In details, 8- to 12-week-old female C57/B16 mice were subjected to 3 oral cycles of 2.5% Dextran Sodium Sulfate (DSS) in drinking water (molecular mass, 40 kDa; MP Biomedicals), each cycle characterized by 7 days of DSS administration followed by 7 days of filter-purified water.
From day 3 of DSS administration, the mice were divided in 4 experimental groups, each receiving the treatment specified below: • Group 1: DSS (n=8)
No treatment, used as negative control. • Group 2: DSS+Vehicle (n=8)
Treated with 20% v/v Dimethyl Sulfoxide (DMSO) and 80% v/v Phosphate Buffered Saline (PBS), 0.1 M, pH 8 (Vehicle), used as a negative control. • Group 3: DSS+DFL 90 mg/kg (n=8)
Treated with DFL23806 dissolved in Vehicle, at the dosage of 90 mg/kg once a day. • Group 4: DSS+5-ASA 60 mg/kg (n=8)
Treated with 5-aminosalicylic acid (5-ASA) in Vehicle, at the dosage of 60 mg/Kg once a day, used as reference positive control.
Vehicle, DFL23806 and 5-ASA were administered daily, in the morning, by oral gavage, using plastic sterile feeding tubes 20 ga×30 mm. All mice were sacrificed on day 39.
A DAI score was established based on a scale that considers different parameters characterizing experimental colitis induction and progression (R S Walmsley et al. Gut 1998; 43:29-32).
Body weight, presence of gross blood in the feces, and stool consistency were recorded every 2 days. In details, the DAI was determined at each time point by scoring changes in weight loss (0=none, 1=1%-5%, 2=5%-10%, 3=10%-20%, 4=>20%); stool consistency (0=normal, 2=loose, 4=diarrhea); and rectal bleeding (0=normal, 2=occult bleeding, 4=gross bleeding).
Mice were sacrificed at day 39, colon were collected and colon lengths measured for each mouse, as additional parameter of intestinal inflammation.
The day of sacrifice (day 39), mice were anesthetized with 2% isoflurane and subjected to endoscopy, to confirm the inflammatory grade. The experimental endoscopy setup, denoted “Coloview system”, consisted of a miniature endoscope (scope 1.9 mm outer diameter), a xenon light source, a triple chip camera, and an air pump (all from Karl Storz, Tuttlingen, Germany) to achieve regulated inflation of the mouse colon. The endoscopic procedure was viewed on a colour monitor and a modified murine endoscopic index score of colitis severity was assigned on the basis of colon translucency (0-3 points), granular features of the mucosa (0-3 points), morphology of the vascular pattern (0-4 points), and the presence of fibrin (0-4 points), as previously described by Dr. D'Alessio (D'Alessio, S. et al. J. Clin. Invest. 124, 3863-3878; 2014) leading to a cumulative score between 0 (no signs of inflammation) and […] (endoscopic signs of very severe inflammation).
Histological analysis has been performed by an expert pathologist, in a blinded fashion, to grade the intestinal inflammation. More in details, colons of colitic mice in the various experimental groups have been evaluated for histological analyses using […] paraffin-embedded sections, stained with hematoxylin (Dako) and eosin (Diapath). A blinded pathologist evaluated the degree of inflammatory cell infiltration and mucosal damage, using the RACHMILEWITZ score (Table 1) (Rachmilewitz, D. et al. Gastroenterology 122, 1428-1441; 2002).

[1] = DFL23806 90 mg/kg oral once a day, versus DSS and DSS+Vehicle groups, already at day 7
[2] = colon, day 39, DFL 90 mg/kg, 5-ASA 60 mg/kg, compared with DSS+Vehicle
[3] = day 39, DFL23806 90 mg/kg, 5-ASA 60 mg/kg oral once a day, compared to DSS and DSS+Vehicle

Cc1cc(F)cc(C)c1NS(=O)(=O)c1cccc(CCCCCCC(=O)O)c1 [DFL23806, 7-(3-(N-(4-fluoro-2,6-dimethylphenyl)sulfamoyl)phenyl)heptanoic acid]
DAI (Disease Activity Index) score [1]: significant effect versus the controls
percentage of body weight loss [1]: significant effect versus the controls
body weight loss / DAI compared with 5-ASA (DFL23806 90 mg/kg versus 5-ASA 60 mg/kg, at certain time points): even more effective than 5-ASA
histological score (Rachmilewitz) for extent of flogosis [2]: significantly reduced the histological score
histological score (Rachmilewitz) for extent of ulceration [2]: significantly reduced the histological score
histological score (Rachmilewitz) for flogosis [2]: significantly reduced the histological score
histological score (Rachmilewitz) for ulceration [2]: significantly reduced the histological score
composite endoscopic score [3]: significantly inhibit chronic experimental colitis
endoscopic score: colon thickness [3]: significantly inhibit chronic experimental colitis
endoscopic score: mucosal surface granularity [3]: significantly inhibit chronic experimental colitis
endoscopic score: vascular pattern [3]: significantly inhibit chronic experimental colitis
endoscopic score: visible fibrin [3]: significantly inhibit chronic experimental colitis
colon length (day 39, DFL23806 90 mg/kg, 5-ASA 60 mg/kg oral once a day, compared to DSS+vehicle): significant inhibitory effect
